Assay results: patent US20240101572A1, “DIHYDROOXADIAZINONE COMPOUND AND PHARMACEUTICAL USE THEREOF” (Japan Tobacco Inc., priority 2022, published 2024)
Read-outs that look alike come from different tables or passages of the source.

Assays:
[1] = target: full-length human PLD1 (Homo sapiens (Human), UniProt Q13393); assay: Evaluation of human PLD1 enzyme inhibitory activity (Amplex Red / choline oxidase fluorescence); type: biochemical
Summary of the method: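 Fluorescence read-out couples choline to Amplex Red via choline oxidase and peroxidase after a 60 min room-temperature reaction. Enzyme: FLAG-tagged full-length human PLD1 from Expi293F cells, anti-FLAG purified; substrate diheptanoyl phosphatidylcholine; HEPES pH 7.5 assay buffer with 0.01% NP-40, 0.1% BSA, 5% DMSO final.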

[2] = target: full-length human PLD2 (Homo sapiens (Human), UniProt O14939); assay: Evaluation of human PLD2 enzyme inhibitory activity (Amplex Red / choline oxidase fluorescence); type: biochemical
Sequence of full-length human PLD2 (O14939 whole entry): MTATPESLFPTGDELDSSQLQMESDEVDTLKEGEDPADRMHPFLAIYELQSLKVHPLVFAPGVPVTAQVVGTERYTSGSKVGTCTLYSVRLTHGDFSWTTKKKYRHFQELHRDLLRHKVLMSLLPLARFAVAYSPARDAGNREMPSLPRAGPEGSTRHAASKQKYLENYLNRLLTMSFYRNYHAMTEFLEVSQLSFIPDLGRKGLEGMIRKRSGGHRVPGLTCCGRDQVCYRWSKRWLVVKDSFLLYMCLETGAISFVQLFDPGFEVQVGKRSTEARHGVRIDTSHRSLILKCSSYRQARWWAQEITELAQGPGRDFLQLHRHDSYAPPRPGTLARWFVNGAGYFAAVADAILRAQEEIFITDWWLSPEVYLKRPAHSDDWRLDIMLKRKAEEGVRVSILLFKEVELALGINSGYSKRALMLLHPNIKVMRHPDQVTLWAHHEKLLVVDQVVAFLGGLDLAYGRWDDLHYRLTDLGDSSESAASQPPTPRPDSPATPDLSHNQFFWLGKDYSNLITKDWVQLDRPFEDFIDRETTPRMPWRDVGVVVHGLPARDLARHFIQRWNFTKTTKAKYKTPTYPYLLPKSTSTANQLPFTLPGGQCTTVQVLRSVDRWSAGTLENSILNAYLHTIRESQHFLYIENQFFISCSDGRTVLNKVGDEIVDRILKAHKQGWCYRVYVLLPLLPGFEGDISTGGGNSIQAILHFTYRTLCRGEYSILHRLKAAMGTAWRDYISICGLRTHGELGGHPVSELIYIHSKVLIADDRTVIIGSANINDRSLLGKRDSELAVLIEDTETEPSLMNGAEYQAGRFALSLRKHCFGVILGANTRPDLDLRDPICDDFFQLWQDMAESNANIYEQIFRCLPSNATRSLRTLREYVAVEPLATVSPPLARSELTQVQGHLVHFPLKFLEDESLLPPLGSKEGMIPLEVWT
Summary of the method: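 Released choline was read by Amplex Red fluorescence coupled to choline oxidase and HRP after a 60 min room-temperature reaction. Substrate was diheptanoyl phosphatidylcholine, added as a 6 mmol/L solution, and enzyme was FLAG-tagged full-length human PLD2 from Expi293F, added as a 6 nmol/L solution. Buffer was 50 mM HEPES pH 7.5 with 5% final DMSO.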

[3] = full-length human PLD1 enzyme, read-out: PLD1 IC50
[4] = full-length human PLD2 enzyme, read-out: PLD2 IC50

Sequence of full-length human PLD1 (Q13393 other isoform, or with tags, fused parts or gaps): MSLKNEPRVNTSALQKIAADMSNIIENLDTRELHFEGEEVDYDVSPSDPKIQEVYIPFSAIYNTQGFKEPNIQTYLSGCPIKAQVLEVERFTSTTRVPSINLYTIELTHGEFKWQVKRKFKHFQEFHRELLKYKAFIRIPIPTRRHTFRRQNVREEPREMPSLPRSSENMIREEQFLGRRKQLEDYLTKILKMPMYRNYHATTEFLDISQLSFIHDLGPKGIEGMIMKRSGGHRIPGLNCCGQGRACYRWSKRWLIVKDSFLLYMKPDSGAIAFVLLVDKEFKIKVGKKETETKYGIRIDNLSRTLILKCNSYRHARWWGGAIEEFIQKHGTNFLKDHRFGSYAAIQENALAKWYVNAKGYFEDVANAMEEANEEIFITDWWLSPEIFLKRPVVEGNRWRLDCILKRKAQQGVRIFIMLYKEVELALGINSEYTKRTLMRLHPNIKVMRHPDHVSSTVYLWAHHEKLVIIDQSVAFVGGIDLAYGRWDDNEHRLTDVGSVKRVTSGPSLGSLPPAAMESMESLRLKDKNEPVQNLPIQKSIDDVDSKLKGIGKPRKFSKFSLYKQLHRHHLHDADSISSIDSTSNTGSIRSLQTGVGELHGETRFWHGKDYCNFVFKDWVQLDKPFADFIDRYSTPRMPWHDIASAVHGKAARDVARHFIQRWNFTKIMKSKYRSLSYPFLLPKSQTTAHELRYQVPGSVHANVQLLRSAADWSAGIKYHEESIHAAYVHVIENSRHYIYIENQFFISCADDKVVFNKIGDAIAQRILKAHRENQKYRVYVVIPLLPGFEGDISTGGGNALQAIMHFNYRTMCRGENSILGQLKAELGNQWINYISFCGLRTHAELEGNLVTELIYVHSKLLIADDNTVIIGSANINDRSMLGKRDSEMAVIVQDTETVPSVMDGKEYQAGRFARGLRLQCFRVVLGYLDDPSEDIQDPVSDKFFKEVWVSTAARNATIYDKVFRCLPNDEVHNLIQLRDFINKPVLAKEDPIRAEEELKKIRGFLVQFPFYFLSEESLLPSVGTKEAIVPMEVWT

Row | SMILES | IC50 ([1]; column 1 of continuation tables 2-12 to 2-14, read-out: human PLD1 enzyme inhibitory activity IC50) [nM] | IC50 ([2]; column 2 of continuation tables 2-12 to 2-14, read-out: human PLD2 enzyme inhibitory activity IC50) [nM] | IC50 [1, 3] [nM] | IC50 [2, 4] [nM]
1 | CNC(=O)C(=O)NC(C)C[C@H]1CC[C@@]2(CC1)OC(=O)NN=C2c1cc(C#N)ccc1Br (mixture of isomers) [Example 2-148] | 140 | 46 | – | –
2 | C[C@@H](C[C@H]1CC[C@]2(CC1)OC(=O)NN=C2c1ccc(F)cc1Br)NC(=O)[C@@H](C)O [Example 28] | – | – | 341 | 303
3 | CONC(=O)N[C@@H](C)C[C@H]1CC[C@]2(CC1)OC(=O)NN=C2c1ccc(F)cc1I [Example 208] | – | – | 45 | 224
4 | CNC(=O)C(=O)N[C@@H](C)C[C@H]1CC[C@]2(CC1)OC(=O)NN=C2c1cnc(C2CC2)cc1C [Example 171] | – | – | 13 | < 10
5 | C[C@@H](CN1CCC2(CC1)OC(=O)N(C(=O)NC1CC1)N=C2c1ccc(F)cc1Br)NC(=O)NC1CC1 [Example 190] | – | – | 642 | 776
6 | [2H]C([2H])([2H])NC(=O)C(=O)N[C@@H](C)C[C@H]1CC[C@]2(CC1)OC(=O)NN=C2c1cc(C#N)ccc1Br [Example 2-073] | – | – | 14 | 2
7 | CNC(=O)C(=O)N[C@@H](C)C[C@H]1CC[C@]2(CC1)OC(=O)NN=C2c1ccc(OC)cc1Br [Example 58] | – | – | 14 | < 10
8 | COc1cc(C)c(C2=NNC(=O)O[C@]23CC[C@@H](C[C@H](C)NC(=O)N2CCc4ncccc4C2)CC3)cn1 [Example 264] | – | – | 36 | < 10
9 | [2H]C([2H])([C@H](C)NC(=O)C(=O)NC)N1CCC2(CC1)OC(=O)NN=C2c1ccc(F)cc1Br [Example 333] | – | – | 25 | < 10
10 | CNC(=O)C(=O)N[C@@H](C)[C@H](C)N1CCC2(CC1)OC(=O)NN=C2c1ccc(F)cc1Br [Example 289] | – | – | 18 | < 10
11 | Cc1cc(C(=O)N[C@@H](C)CN2CCC3(CC2)OC(=O)NN=C3c2ccc(F)cc2Cl)no1 [Example 98] | – | – | 57 | 78
12 | Cc1cc(C(=O)N[C@@H](C)C[C@H]2CC[C@]3(CC2)OC(=O)NN=C3c2cccc(C#N)c2Br)[nH]n1 [Example 317] | – | – | 71 | 65
13 | C[C@@H](C[C@H]1CC[C@]2(CC1)OC(=O)NN=C2c1ccc(OC(F)(F)F)cc1Br)NC(=O)c1cc(Cl)no1 [Example 81] | – | – | 12 | < 10
14 | C[C@@H](C[C@]1(C#N)CC[C@@]2(CC1)OC(=O)NN=C2c1cc(C#N)ccc1Br)NC(=O)c1cc(Cl)no1 [Example 2-068] | – | – | < 10 | < 10
15 | Cc1cc(C(=O)N[C@@H](C)CN2CCC3(CC2)OC(=O)NN=C3c2cc(C#N)ccc2Br)[nH]n1 [Example 301] | – | – | 30 | < 10
16 | CNC(=O)C(=O)N[C@@H](C)C[C@H]1CC[C@]2(CC1)OC(=O)NN=C2c1ccc(F)cc1CCC(F)(F)F [Example 135] | – | – | 86 | 33
17 | C[C@@H](C[C@H]1CC[C@]2(CC1)OC(=O)NN=C2c1ccc(S(C)(=O)=O)cc1Br)NC(=O)c1ccccc1 [Example 49] | – | – | 31 | 11

Row | SMILES | IC50 ([1]; column 1 of continuation tables 2-12 to 2-14, read-out: human PLD1 enzyme inhibitory activity IC50) [nM] | IC50 ([2]; column 2 of continuation tables 2-12 to 2-14, read-out: human PLD2 enzyme inhibitory activity IC50) [nM] | IC50 [1, 3] [nM] | IC50 [2, 4] [nM]
18 | CSc1ccc(C2=NNC(=O)OC23CCN(C[C@H](C)NC(=O)c2cc(C)n[nH]2)CC3)c(Cl)c1 [Example 127] | – | – | 25 | < 10
19 | C[C@@H](C[C@H]1CC[C@]2(CC1)OC(=O)NN=C2c1ccc(F)cc1Br)NC(=O)CC#N [Example 41] | – | – | 229 | 500
20 | C[C@@H](C[C@H]1CC[C@]2(CC1)OC(=O)NN=C2c1ccc(F)cc1Br)NC(=O)C1(O)COC1 [Example 123] | – | – | 202 | 502
21 | CNC(=O)C(=O)N[C@@H](C)C[C@H]1CC[C@]2(CC1)OC(=O)NN=C2c1cccnc1C [Example 102] | – | – | 288 | 666
22 | CNC(=O)C(=O)N[C@@H](C)C[C@H]1CC[C@]2(CC1)OC(=O)NN=C2c1ccc(S(C)(=O)=O)cc1Br [Example 33] | – | – | 25 | < 10
23 | C[C@@H](C[C@H]1CC[C@]2(CC1)OC(=O)NN=C2c1ccc(F)cc1Br)NC(=O)/C=C/CN(C)C [Example 279] | – | – | 86 | 44
24 | CNC(=O)C(=O)N[C@@H](C)C[C@H]1CC[C@]2(CC1)OC(=O)NN=C2c1cnc(N2CCCCC2)cc1C [Example 166] | – | – | 19 | < 10
25 | C[C@@H](CN1CCC2(CC1)OC(=O)NN=C2c1ccc(F)cc1Br)NC(=O)C(=O)NC1CC1 [Example 180] | – | – | 28 | 12
26 | CNC(=O)C(=O)N[C@@H](C)CN1CCC2(CC1)OC(=O)NN=C2c1cc(C(=O)N(C)C)ccc1Br [Example 2-038] | – | – | 60 | 11
27 | C[C@@H](C[C@H]1CC[C@]2(CC1)OC(=O)NN=C2c1ccc(C#N)cc1Br)NC(=O)c1cc(Cl)no1 [Example 71] | – | – | < 10 | < 10
28 | C[C@@H](CN1CCC2(CC1)OC(=O)NN=C2c1ccc(F)cc1Br)NC(=O)N1CCC2(CC2)C1 [Example 284] | – | – | 61 | 40
29 | CNC(=O)C(=O)N[C@@H](C)C[C@H]1CC[C@]2(CC1)OC(=O)NN=C2c1cc(OCC(C)(C)O)ccc1Br [Example 2-014] | – | – | 22 | < 10
30 | Cc1cc(F)ccc1C1=NNC(=O)O[C@]12CC[C@@H](C[C@H](C)NC(=O)N1Cc3ccccc3C1)CC2 [Example 101] | – | – | < 10 | < 10
31 | Cc1cc(C(=O)N[C@@H](C)C[C@H]2CC[C@]3(CC2)OC(=O)NN=C3c2cnc(N3CC4CCC(C3)O4)cc2C)[nH]n1 [Example 251] | – | – | 17 | < 10
32 | CNC(=O)C(=O)N[C@@H](C)C[C@H]1CC[C@]2(CC1)OC(=O)NN=C2c1cccc(C)c1C [Example 129] | – | – | 18 | < 10
33 | CNC(=O)C(=O)N[C@@H](C)C[C@H]1CC[C@]2(CC1)OC(=O)NN=C2c1cnc(N2CC(C)C2)cc1C [Example 182] | – | – | 19 | < 10
34 | CSc1ccccc1C1=NNC(=O)O[C@]12CC[C@@H](C[C@H](C)NC(=O)c1cc(Cl)no1)CC2 [Example 79] | – | – | < 10 | < 10
